The values below come from US20260007692A1, “BIORESORBABLE ORGANIC BIOELECTRONICS” (priority 2023, published 2026).

Data set [1] concerns HLF-1. Nature of the data set: MTT cell viability assay (limiting-dilution toxicity). The format is cell-based, human. The note with it: 1 day exposure, up to 1 mg mL^−1. As to the method:
The MTT cell viability assay was conducted to determine in vitro toxicity of A5, ETE-S and ETE-PC. Briefly, HLF-1 (2×10^4 cells well-1) were plated in a 96-well flat-bottom microplate and grown for 24 h. Cells were treated with A5, ETE-S, or ETE-PC (0-1000 μg ml^−1) for 24 h. Post-treatment, 200 μL of MTT (0.5 mg mL^−1) was added into each well and incubated at 37° C. for 4 h. After incubation, 200 μL of isopropanol was added to dissolve formazan crystals. The optical density of formazan solution, as a measure of live cells, was obtained using a microplate reader at 570 nm (Spark Cyto, Tecan). The formazan signal (live cell count) was normalized to the control samples not exposed to A5 or ETE-Rs. 3 biological and 3 technical replicates were used for each setting. Each well contained up to 200 μg of our compound (1 mg mL^−1, 200 μL) which can be compared to a typical in vivo injection of 400 ng (40 mg mL^−1, 10 nL).
In general terms: Formazan colour is commonly taken as a measure of viable cells.

For data set [2], the target named is T1, horseradish peroxidase (HRP) (Armoracia rusticana, UniProt P00433).
T1 construct: purchased Merck, Sigma Aldrich P8375-25KU
T1 sequence (P00433 31-338 limits assumed): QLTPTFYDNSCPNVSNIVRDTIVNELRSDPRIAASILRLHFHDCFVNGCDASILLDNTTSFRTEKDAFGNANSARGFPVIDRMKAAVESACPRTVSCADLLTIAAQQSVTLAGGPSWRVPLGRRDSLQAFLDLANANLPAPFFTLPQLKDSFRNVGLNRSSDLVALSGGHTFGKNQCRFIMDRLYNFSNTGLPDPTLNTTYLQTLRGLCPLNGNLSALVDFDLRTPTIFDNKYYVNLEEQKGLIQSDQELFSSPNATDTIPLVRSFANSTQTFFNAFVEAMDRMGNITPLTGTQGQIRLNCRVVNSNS
Nature of the data set: Enzymatic polymerization of ETE-PC with HRP and H2O2. The format is biochemical. The note with it: ETE-PC 500 μg/ml, HRP 5 U/ml. The method, then:
A solution of ETE-PC (500 μg/ml) was prepared in DPBS (Thermo Fischer, Gibco, Cat no. 14190-250) and mixed with different concentrations of hydrogen peroxide (H2O2) (0.001-0.01%) and horseradish peroxidase (HRP) (Merck, Sigma Aldrich, P8375-25KU) (5 U/ml in DPBS) was added. The polymerization was examined by the change of colour of the ETE-PC solution from slightly yellow to black and taking absorbance at 350 nm and 780 nm to detect polymerized and unpolymerized ETE-PC. The absorbance maxima of polymerized and unpolymerized ETE-PC were determined by a wavelength scan using UV-Vis spectrophotometry by Spark Cyto (Tecan) multi-mode plate reader.

The test system of data set [3] is normal human lung fibroblast (HLF-1) cells. Nature of the data set: Calcein-AM cytotoxicity assessment in normal lung fibroblast. The format is cell-based. To be noted: 24 hrs. As to the method:
Study of the in vitro toxicity of ETE-PC in normal human lung fibroblast (HLF-1) cells. Briefly, HLF-1 cells were seeded in 96 well plate at a density of 2×10^4 cell per well and grown for 24 hrs. Later cells were treated with various concentrations of ETE-PC (5-1000 μg/ml) for 24 hrs. Post treatment, 200 μl live cell staining dye calcein-AM (Thermo Fisher, Invitrogen, Cat no. C3100MP) (2 μM in PR free DMEM) was added to wells and incubated for 30 min followed by examination of live cells using fluorescence cell imaging (Spark Cyto cell imager, Tecan).

Data set [4] can be described thus: Oxidation / redox potential of trimers and EDOT monomer. The class given is physicochemical.

On to `O=S(=O)(O)CCCCOCCc1cc(-c2scc3c2OCCO3)sc1-c1scc2c1OCCO2` [ETE-S, sodium 4-(2-(2,5-bis(2,3-dihydrothieno[3,4-b][1,4]dioxin-5-yl)thiophene-3-yl)ethoxy)butane-1-sulfonate], for which the cell toxicity entry in data set [1] is given as “some toxicity at high concentrations”.
Consider `C[N+](C)(C)CCOP(=O)([O-])OCCc1cc(-c2scc3c2OCCO3)sc1-c1scc2c1OCCO2` [ETE-PC], for which the cell toxicity result in data set [1] was “neither A5 nor ETE-PC showed cell toxicity”. Besides, in data set [2], the “H2O2 concentration at which polymerization by HRP got saturated” value is reported as 0.002% and the “concentration of H2O2 required for HRP mediated polymerization” value stood at 0.001%. Further, the “morphology in phase contrast images” value in data set [3] (5-1000 μg/ml) is “No detrimental change in morphology of HLF-1 cells was observed”. In addition, the “calcein-AM fluorescence vs control” value in data set [3] (even at 1000 μg/ml) was “no change the calcein-AM fluorescence”.
In turn, `c1scc2c1OCCO2` [EDOT, 3,4-ethylenedioxythiophene] had an oxidation potential in data set [4] of 1.2 V.
